What all share (assay type): cell-based, human
Experiment [1] concerns T-iPS-T cells. The experiment in a line: Feeder-free culture of T-iPS-T cells, FACS count of PI-negative cells and CD45RA(+)CCR7(+) cells. To be noted: 6 days; for Number of CD45RA+CCR7+ cells: DMSO 3891 ± 3170; for Cell number: DMSO 16096 ± 10785. How it is done:
After washing, the cells were resuspended in the staining solution containing PI. Half the amount was analyzed using a BD LSR Fortessa cytometer (BD Bioscience) equipped with HTS, and all cells were recorded.
The concentration dependence of the bisbenzylisoquinoline alkaloid represented by the formula (X-1) or the formula (X-2) in feeder-free proliferation of T-iPS-T cells was examined. T-iPS-T cells were cultured using alpha-MEM medium supplemented with 15% FBS, 1% PSG, PAA (50 μg/mL), ITS-G, IL-7 (5 ng/mL), IL-12 (50 ng/mL), IL-15 (5 ng/mL), IL-18 (50 ng/mL), IL-21 (20 ng/mL), and z-VAD-fmk (10 μM).
The effect on culturing of T-iPS-T cells was evaluated by comparing a known compound that contributes to the proliferation of memory T cells with berbamine. […] DMSO (0.1%) that is a solvent for the compound was used as a control.
The number of events of PI-negative cells and the number of events of CD45RA(+)CCR7(+) cells in the PI-negative cells, which were analyzed by FlowJo 9, were used as data. Note that in a statistical analysis, a Student's t-test was used (*: p<0.05).
The effect of the combined use of berbamine with a MAPK cascade inhibitor on the proliferation of memory T cells was examined. […] The final concentration of each compound was set to 1 μM. DMSO (0.1%) that is a solvent for the compound was used as a control.
The number of events (#Cells) of CD45RA(+)CCR7(+) cells in the PI-negative cell population analyzed by FlowJo 9 was plotted and graphed. Note that in a statistical analysis, a Student's t-test was used (*: p<0.05, **P<0.01, ***P<0.001, ****P<0.0001).

Experiment [2] relates to T-iPS-T cells. The experiment is described as follows: Comparison with PBMC feeder: proliferation of T-iPS-T cells. The conditions noted are these: 1 μM added to CD3/CD28 Dynabeads vs PBMC feeder, FIG. 10. How it is done: By using T-iPS-T cells, a proliferation promoting effect was compared by culturing the cells using the following three methods: the same stimulation method as in Example 2 using PBMC feeder, the same stimulation method as in Example 4 using CD3/CD28 Dynabeads, and the same stimulation method as in Example 4 in which berbamine (SIGMA, 547190) at 1 μM was added to CD3/CD28 Dynabeads. The PBMC feeder cells were labeled using CellTrace CFSE Cell Proliferation Kit for Flow Cytometry (CFSE, Invitrogen, 100 nM) in order to discriminate them from T-iPS-T cells, and then, a radiation irradiation treatment was performed.
From the above results, it can be said that the present invention can substitute PBMCs which have been conventionally used for the proliferation of T cells.

Another experiment has as its system NK cells. The experiment in a line: Proliferation of NK cells purified from PBMCs, trypan blue count. The conditions noted are these: 1 μM, 14 days, NK cells of 3 donors, FIG. 20(C). From the text: The effect of berbamine on NK cells was examined. As a method therefor, NK cells were purified from PBMCs (CTL, Inc.) derived from 3 healthy donor subjects using NK Cell Isolation Kit, human (Miltenyi, 130-092-657).
The NK cells before and after purification were washed with a staining solution (PBS containing 2% FBS) and then stained with CD56-FITC (BioLegend, 362546) and CD3-APC-Cy7 (BioLegend, 300318).
After washing, the cells were resuspended in the staining solution containing propidium iodide and measured using a BD FACSCanto II Flow Cytometer (BD Bioscience). The ratios of CD3(−) and CD56(+) cells in the PI-negative cell population analyzed by FlowJo 10 were confirmed.
As shown in FIG. 20(B), the ratios of CD3(−) and CD56(+) cells showing NK cells were 90% or more, which were sufficient. The purified NK cells (37,000 cells/well) were seeded, and cultured using MEM Alpha medium (Gibco, 12571-063) supplemented with 15% FBS (Biological Industries, 04-001-1A), L-Ascorbic Acid 2-Phosphate Sesquimagnesium Salt Hydrate (L-asc-2P, 50 μg/mL, nacalai tesque, 13570-66), ITS-G, IL-7 (10 ng/mL), and IL-15 (5 ng/mL).
To the culture medium, berbamine (BBM) at 1 μM or MilliQ water that is a solvent for the compound as a control was added, and after culturing for 14 days, the number of viable cells was counted by a trypan blue method.

Regarding `COc1cc2c3cc1Oc1c(OC)c(OC)cc4c1[C@@H](Cc1ccc(O)c(c1)Oc1ccc(cc1)C[C@@H]3N(C)CC2)N(C)CC4` [berbamine], the “Number of CD45RA+CCR7+ cells” value in the experiment with T-iPS-T cells [1] (1 nM) is 5761 ± 4045; in the experiment on T-iPS-T cells [1] (3 nM) it was 5667 ± 4255; in the experiment with T-iPS-T cells [1] (10 nM), 6186 ± 3617; in the experiment on T-iPS-T cells [1] (30 nM), 7186 ± 4180 *; in the experiment with T-iPS-T cells [1] (100 nM), 10224 ± 3801 **; in the experiment with T-iPS-T cells [1] (300 nM), 12034 ± 6515 *. Also, the figures for the “Number of CD45RA+CCR7+ cells” value in the experiment with T-iPS-T cells [1] (1 μM), in the experiment with T-iPS-T cells [1] (3 μM) and with T-iPS-T cells [1] (10 μM) were 12957 ± 9483, 13552 ± 10355 and 5650 ± 8552, respectively. The Cell number in the experiment on T-iPS-T cells [1] (1 nM) is on record as 18397 ± 10723; in the experiment with T-iPS-T cells [1] (3 nM) it was 19540 ± 11587; in the experiment with T-iPS-T cells [1] (10 nM), 24672 ± 10675 **; with T-iPS-T cells [1] (30 nM) it was 30885 ± 12249 **; in the experiment on T-iPS-T cells [1] (100 nM), 48026 ± 6597 **; with T-iPS-T cells [1] (300 nM) it was 54888 ± 5691 **. Besides, the Cell number in the experiment with T-iPS-T cells [1] (1 μM) is 43432 ± 23926; in the experiment with T-iPS-T cells [1] (3 μM) it was 43656 ± 29882; with T-iPS-T cells [1] (10 μM) it was 20559 ± 34130. Further, in the experiment with T-iPS-T cells [1] (1 μM, FIG. 7), the “number of CD45RA(+)CCR7(+) cells, rank among the 266 compounds” value is recorded as “highest number of CD45RA(+)CCR7(+) cells”. The “proliferation of T-iPS-T cells (PI-negative cells and CD45RA(+)CCR7(+) cells) vs DMSO” value in the experiment with T-iPS-T cells [1] (1 μM, FIG. 12) is given as “significant proliferation effect”. Moreover, in the experiment with T-iPS-T cells [1] (each compound 1 μM, FIG. 13), the “number of CD45RA(+)CCR7(+) cells compared with DMSO” value was “significant cell proliferation”. In addition, the “number of undifferentiated cells compared with the presence of feeder cells” value with T-iPS-T cells [2] is listed as “comparable results”. In addition, in the experiment on T-iPS-T cells [2], the “number of viable cells compared with the presence of feeder cells” value is reported as “significant increase in the number of viable cells”. Also, the “number of NK cells compared with MilliQ water” value with NK cells was “increase in the number of NK cells”.

The record behind these values is patent US12168781B2, “Production method for T cells or NK cells, medium for culturing T cells or NK cells, method for culturing T cells or NK cells, method for maintaining undifferentiated state of undifferentiated T cells, and growth-accelerating agent for T cells or NK cells” (KIRIN HOLDINGS KABUSHIKI KAISHA, priority 2018, dated 2024).
